Literature values, collected in patent US5503831A, “Lipase inhibitor derived from a defatted rice germ” (Yakurigaku Chuo Kenkyusho, priority 1993, dated 1996).

System: lipase
Settings: in the presence of bile acids (sodium taurocholic acid for wheat germ protein), emulsified lipids

| Substance | Action on lipase in the presence of bile acids |
| --- | --- |
| serum albumin | does not exert such an action |
| β-lactoglobulin | does not exert such an action |
